Reference: patent publication US6849594B1, “Purification and use of human recombinant cartilage oligomeric matrix protein” (priority 1999, dated 2005)
Where two headings read alike, the source gives them in different places. Values belong to the substance of their own block, whether it stands above or below them.

What was measured:
hCOMP = target: T1, hCOMP (Homo sapiens, UniProt P49747); assay: Affinity co-electrophoresis (ACE) binding of hCOMP to glycosaminoglycans
T1 construct: transfected with full length human COMP cDNA, they were able to process and secrete hCOMP; made in house
Excerpt: Affinity co-electrophoresis (ACE) was used to quantify the binding of hCOMP to heparin and other GAGs, including chondroitin sulfates from cartilage. Values are given in nM, and in cases where a standard deviation is reported, represent the mean of two determinations.
Affinity co-electrophoresis (ACE) (San Antonio et al., 1993) was used to quantify the binding of hCOMP to heparin and other commercially available GAGs derived from tissue sources, including chondroitin sulfates from cartilage, and values of Kd were measured. […] This is in agreement with our observation that hCOMP binds to heparin-Sepharose. […] To better ascertain potential roles of GAGs and proteoglycans in COMP function, heparan sulfate, keratan sulfate, and three chondroitin sulfates (chondroitin-6-sulfate, C6S; chondroitin-4-sulfate; C4S; and dermatan sulfate, DS) were tested for binding to hCOMP in the presence of 2 mM calcium using ACE (Table 1).
To further determine whether the conformation of the calcium-binding type 3 repeats was critical to GAG binding, hCOMP was tested for binding to heparin and C6S in the presence of 5 mM EDTA. […] While heparin binding was reduced only 3- to 5-fold by EDTA treatment, C6S binding appeared to be abolished by this treatment.

[1] = Direct calcium binding by equilibrium dialysis using 45CaCl2; conditions: 0.3 mM free calcium concentration; mean±SD
Experimental: Direct calcium binding to COMP was measured by equilibrium dialysis using ^45CaCl2. Briefly, TSP1 and COMP were dialyzed in Slide-A-Lyzer dialysis units (Pierce, Rockford, Ill.) against dialysis buffer containing 0.3 mM CaCl2 and […] of ^45CaCl2. At the end of dialysis, 10 μl of protein sample and dialysis buffer were taken out for scintillation counting and protein determination. The number of calcium ions bound was calculated. At 0.3 mM free calcium concentration, each TSP1 subunit bound 10±2 calcium ions (mean±SD of four data points). This is in agreement with previous reports where 11-12 calcium ions were reported to bind to each TSP1 subunit (Lawler and Simons, 1983; Misenheimer and Mosher, 1995). Under the same conditions, each subunit of COMP bound 11±1 calcium ions. This is the first time it is shown that COMP binds calcium ions, and the result is consistent with the presence of highly homologous type 3 calcium binding repeats in COMP and other TSP family members.
Direct calcium binding to COMP was measured by equilibrium dialysis using ^45CaCl2. Briefly, TSP1 and COMP were dialyzed in Slide-A-Lyzer dialysis units (Pierce, Rockford, Ill.) against dialysis buffer containing 0.3 mM CaCl2 and 10 mCi/ml of ^45CaCl2. […] The number of calcium ions bound was calculated. […]

[2] = test system: Human costochondral cartilage cells; assay: Transwell chondrocyte migration assay; assay type: cell-based; conditions: for chondrocyte migration: coated on underside of transwell membranes, 37° C., four hours
Experimental: (§1) Furthermore, as discussed in Example 5, COMP is a motility factor for chondrocyte migration. Human costochondral cartilage cells were used to test if COMP is active in promoting chondrocyte migration. COMP, as well as TSP1 and Vitrogen (Cohesion; Palo Alto, Calif.), at different concentrations, was coated on the underside of membranes of transwell migration assay wells. Chondrocyte cells, prepared as in the attachment assays, were loaded into the wells. Migration was allowed to go on at 37° C. for four hours. Nonmigratory cells remaining inside the wells were removed with cotton swabs. Cells which migrated to the underside of the membranes were quantified using a CyQuant kit.
as §1, with “Human” for “Furthermore, as discussed in Example 5, COMP is a motility factor for chondrocyte migration. Human”, “concentrations, were” for “concentrations, was”, “assay wells (Costar, Cambridge, Mass.).” for “assay wells.”, “Cells that” for “Cells which”, “CyQuant kit (Molecular Probes).” for “CyQuant kit.”

[3] = test system: TC1a cells (chondrocyte-derived cell line), monolayer culture; assay: Attachment of TC1a cells grown in monolayer to coated protein; assay type: cell-based, human
Experimental: To prepare cells grown in monolayer for attachment assays, cells grown in 10 cm tissue culture plates were washed twice with HEPES buffered saline (HBS), and treated with 1 ml of 0.1 mg/ml TPCK-treated trypsin (Worthington, Lakewood, N.J.) in HBS at 37° C. for 5 minutes. Trypsinization was stopped with 2 ml of 0.5 mg/ml soybean trypsin inhibitor (Sigma) in HBS with 1 mM CaCl2 (HBS/C). Cells were flushed off the plate as a single cell suspension, sedimented and washed twice with trypsin inhibitor solution. Subsequently, cells were resuspended in HBS/C containing 1% heat-inactivated bovine serum albumin (HI-BSA) at a final concentration of 2-2.5×10^5 cells/ml and used for attachment assays.
Immulon II 96-well plates (DYNEX, Chantilly, Va.) were coated with COMP at various concentrations in HBS/C or HBS containing 5 mM EDTA (HBS/E) at 4° C. overnight. The plates were then blocked with 1% HI-BSA in HBS/C or HBS/E, respectively, for 30 minutes at 37° C. After blocking, some wells coated with proteins in HBS/E were reduced with 20 mM dithiothreitol (DTT) in HBS/E for 30 minutes at 22° C. Wells were washed 4 times with HBS/C before addition of 100 μl of cells to each well and incubated for 2 hours at 37° C. At the end of the incubation, after examination under phase contrast microscopy, the plate was washed 3 times with HBS/C. The amount of cells attached to each well was quantified using CyQuant kit (Molecular Probes, Eugene, Oreg.).

[4] = test system: TC1a cells after 7- to 10-day culture in alginate beads; assay: Attachment of TC1a cells after alginate culture to coated protein; assay type: cell-based, human
Excerpt: An alginate culture system was used to re-differentiate the chondrocytes as described (Robbins and Goldring, 1998; Goldring, 1998; Hauselmann et al., 1994; Bonaventure et al., 1994). Briefly, cells in monolayer culture were trypsinized and washed with phosphate buffered saline. Cells were resuspended in 1.2% solution of Keltone, LVCR alginate (Monsanto, St. Louis, Mo.) in 0.15 M NaCl at a final concentration of 4×10^6 cells/ml. The cell suspension was then passed through a 22 Gauge needle into 102 mM CaCl2. Ten minutes after instant gelation, beads were washed with 0.15 M NaCl, and cultured in 1:1 DME/F-12 containing 10% FBS and 25 μg/ml ascorbate. To prepare cells in the alginate culture system for attachment assays, 7- to 10-day alginate bead cultures were solubilized with 55 mM citrate/0.15 M NaCl, pH 6.0 solution as described (Robbins and Goldring, 1998). Released cells were washed once with PBS and once with HBS/C before they were resuspended in HBS/C containing 1% BSA at a final concentration of 2-2.5×10^5 cells/ml.
Immulon II 96-well plates (DYNEX, Chantilly, Va.) were coated with COMP at various concentrations in HBS/C or HBS containing 5 mM EDTA (HBS/E) at 4° C. overnight. […] The amount of cells attached to each well was quantified using CyQuant kit (Molecular Probes, Eugene, Oreg.). […]

[5] = previous reports (Lawler and Simons, 1983; Misenheimer and Mosher, 1995); cited from earlier work
[6] = 2 mM Ca2+, ACE, > means no binding observed at any protein concentration, read-out: COMP, Kd in 2 mM Ca^2+
[7] = 5 mM EDTA, ACE, > means no binding observed at any protein concentration, read-out: COMP, Kd in 5 mM EDTA

T1 sequence (P49747 21-757): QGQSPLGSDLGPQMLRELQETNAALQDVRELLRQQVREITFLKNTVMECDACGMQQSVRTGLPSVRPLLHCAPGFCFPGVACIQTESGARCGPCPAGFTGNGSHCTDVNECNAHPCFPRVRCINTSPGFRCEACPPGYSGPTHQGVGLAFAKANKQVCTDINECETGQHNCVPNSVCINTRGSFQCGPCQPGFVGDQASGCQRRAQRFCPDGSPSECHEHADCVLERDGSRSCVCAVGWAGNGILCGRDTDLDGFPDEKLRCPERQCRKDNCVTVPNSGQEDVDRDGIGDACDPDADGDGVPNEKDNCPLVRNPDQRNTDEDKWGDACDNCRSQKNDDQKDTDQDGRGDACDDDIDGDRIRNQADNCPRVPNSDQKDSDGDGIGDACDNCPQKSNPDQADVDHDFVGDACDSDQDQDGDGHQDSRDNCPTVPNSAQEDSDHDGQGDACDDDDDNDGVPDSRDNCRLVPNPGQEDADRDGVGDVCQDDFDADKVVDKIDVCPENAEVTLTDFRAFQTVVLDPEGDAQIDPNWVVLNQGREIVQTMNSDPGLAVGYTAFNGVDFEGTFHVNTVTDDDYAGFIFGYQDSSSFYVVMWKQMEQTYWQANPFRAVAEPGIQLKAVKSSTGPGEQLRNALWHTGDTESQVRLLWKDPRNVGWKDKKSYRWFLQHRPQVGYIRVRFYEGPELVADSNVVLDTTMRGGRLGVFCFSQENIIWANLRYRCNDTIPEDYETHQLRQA

Substance: Heparin
Kd (hCOMP; [6]): 89 nM | Kd (hCOMP; [7]): 450 nM

Substance: cartilage oligomeric matrix protein [hCOMP]
calcium ions bound per subunit [1]: 11±1 calcium ions | chemoattractant potency compared with TSP1 [2]: more potent chemoattractant than TSP1 | chondrocyte migration [2]: good chemoattractant | chemoattractant potency compared with TSP1 ([2]; same concentration of 10 μg/ml): more potent chemoattractant than TSP1 | effect on attachment of treating with EDTA before coating ([3]; EDTA before coating): no obvious effect | protein coating concentration at which cells also spread ([3]; calcium replete conformation): ≥ 5 µg/mL | coating concentration at which cells attached and spread ([3]; dithiothreitol-treated): 1 µg/mL | cell attachment ([3]; protein in calcium replete conformation, coated on wells): supported cell attachment in a dose-dependent manner | effect of reduction after coating on adhesive activity ([3]; reduced with DTT after coating, especially at low coating concentration): increased its adhesive activity | cell attachment ([4]; calcium replete form, re-differentiated TC1a cells): able to support attachment | decrease of level of attachment by chelation of calcium before coating ([4]; chelation of calcium before coating): approximately 50%

Substance: chondroitin-4-sulfate [C4S]
Kd (hCOMP; [6]): 583 nM

Substance: heparan sulfate [HS]
Kd (hCOMP; in the presence of calcium, ACE, read-out: binding to hCOMP (Kd)): 1200 nM

More lines, main results first:

Kd (hCOMP; [6]): 403 nM | binding to hCOMP after EDTA treatment (in words) (hCOMP; 5 mM EDTA): abolished | Kd (hCOMP; [7]): > 11000 nM
Substance: chondroitin-6-sulfate [C6S]

Kd (hCOMP; [6]): 328 nM
Substance: dermatan sulfate [DS]

calcium ions bound per subunit [1]: 10±2 calcium ions
Substance: human thrombospondin 1 [TSP1]
chondrocyte migration [2]: promotes chondrocyte migration | chondrocyte migration ([2]; listed as TSP 1): promoted chondrocyte migration | calcium ions bound per subunit, previous reports [5]: 11-12 calcium ions

Kd (hCOMP; [6]): > 11000 nM | binding to hCOMP (in words) (hCOMP; in the presence of calcium, ACE): did not bind
Substance: keratan sulfate [KS]
